Laboratory results published in publication PMC7768756, “BAM1/2 receptor kinase signaling drives CLE peptide-mediated formative cell divisions in Arabidopsis roots” (Proceedings of the National Academy of Sciences of the …, 2020).
Like-named read-outs stand apart in the source and are kept apart here. Non-standard residues stand in square brackets, D forms with d. Residues, ends and D or L forms follow the SMILES beside them. No end group written: not given here. Hyp = O=C(O)[C@@H]1C[C@@H](O)CN1

Legend:
[1] = target: T1, BAM1 extracellular domain (Arabidopsis thaliana, UniProt O49545); experiment: Grating-coupled interferometry (GCI) binding kinetics of CLE peptides versus the BAM1 ectodomain; settings: for koff: pH 5, read-out: koff, dissociation rate constant; for kon: pH 5, read-out: kon, association rate constant
T1 construct: Drosophila BiP secretion signal peptide (N); StrepII (C, cleaved yes); 10xHis (C, cleaved yes); made in house; host or cells: Trichoplusia ni (strain Tnao38) insect cells, baculovirus (modified pFastBac)
T1 sequence (O49545 20-637): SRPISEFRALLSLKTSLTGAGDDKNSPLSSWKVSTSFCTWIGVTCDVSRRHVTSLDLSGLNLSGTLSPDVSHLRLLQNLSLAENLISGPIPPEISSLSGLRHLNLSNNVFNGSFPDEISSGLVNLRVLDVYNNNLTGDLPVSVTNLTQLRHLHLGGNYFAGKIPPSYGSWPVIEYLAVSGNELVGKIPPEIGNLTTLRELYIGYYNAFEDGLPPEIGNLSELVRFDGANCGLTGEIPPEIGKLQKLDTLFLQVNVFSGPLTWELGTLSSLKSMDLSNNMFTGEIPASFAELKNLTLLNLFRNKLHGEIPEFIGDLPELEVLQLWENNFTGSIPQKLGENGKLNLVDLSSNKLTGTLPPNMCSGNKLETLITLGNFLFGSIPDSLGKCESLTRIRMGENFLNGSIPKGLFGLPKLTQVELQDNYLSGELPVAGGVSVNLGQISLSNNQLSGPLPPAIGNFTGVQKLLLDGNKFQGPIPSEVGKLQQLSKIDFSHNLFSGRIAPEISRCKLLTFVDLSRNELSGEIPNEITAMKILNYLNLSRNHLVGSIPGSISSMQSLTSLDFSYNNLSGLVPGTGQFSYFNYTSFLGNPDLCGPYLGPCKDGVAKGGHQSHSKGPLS
Description: The coding sequence of BAM1 (residues 20 to 637) was synthesized (GeneArt) with codons optimized for expression in Trichoplusia ni and cloned in a modified pFastBac vector (Geneva Biotech), harboring the Drosophila BiP secretion signal peptide and a TEV (tobacco etch virus protease) cleavable C-terminal StrepII, 10× His tag and a noncleavable Avi-tag ([41], [42]). T. ni (strain Tnao38) ([43]) cells were infected with a multiplicity of infection (MOI) of 1 at a density of 2 × 10^6 cells mL^−1 and incubated 26 h at 28 °C and 48 h at 22 °C. The secreted protein was purified from the supernatant by Ni^2+ (HisTrap Excel; GE Healthcare; equilibrated in 50 mM KPi pH 7.6, 250 mM NaCl, 1 mM 2-mercaptoethanol) and StrepII (Strep-Tactin XT Superflow high affinity chromatography: IBA; equilibrated in 20 mM Tris pH 8.0, 250 mM NaCl, 1 mM ethylenediaminetetraacetic acid) affinity chromatography. The tag was cleaved with His-tagged TEV protease at 4 °C overnight and removed by Ni^2+ affinity chromatography. Proteins were then further purified by size-exclusion chromatography on a Superdex 200 increase 10/300 GL column (GE Healthcare), equilibrated in 20 mM sodium citrate pH 5.0, 250 mM NaCl.
BAM1 protein (20 µM) was biotinylated with biotin ligase BirA (2 µM) ([42]) for 1 h at 25 °C, in a volume of 200 µL; 25 mM Tris pH 8, 150 mM NaCl, 5 mM MgCl2, 2 mM 2-mercaptoethanol, 0.15 mM biotin, 2 mM ATP, and followed by size-exclusion chromatography to purify the biotinylated protein.
Grating-coupled interferometry (GCI) experiments were derived by the Creoptix WAVE system (Creoptix). All experiments were performed on 4PCP WAVE chips (quasiplanar polycarboxylate surface; Creoptix). Borate buffer (100 mM sodium borate pH 9.0, 1 M NaCl; Xantec) was used for chip conditioning and streptavidin (Sigma) was immobilized on the chip surface with standard amine coupling; 7 min activation [1:1 mix of 400 mM N-(3-dimethylaminopropyl)-N′-ethylcarbodiimide hydrochloride and 100 mM N-hydroxysuccinimide] (Xantec), followed by injection of streptavidin (30 µg mL^−1) in 10 mM sodium acetate pH 5.0 (Sigma) until the desired density was reached, passivation of the surface (0.5% bovine serum albumin [Roche] in 10 mM sodium acetate pH 5.0) and final quenching with 1 M ethanolamine pH 8.0 for 7 min (Xantec). Then, biotinylated BAM1 (80 µg mL^−1) was captured on the chip surface. All kinetic analyses were performed at 25 °C with a 1:2 dilution series from 100 nM for CLE9 or 10 µM for the other peptides in 20 mM citrate pH 5.0, 250 mM NaCl, 0.01% Tween 20. Blank injections were used for double referencing and a dimethyl sulfoxide (DMSO) calibration curve for bulk correction. Analysis and correction of the obtained data were performed using the Creoptix WAVE control software (correction applied: X and Y offset; DMSO calibration; double referencing). Mass transport binding models with bulk correction were used to fit all experiments.

CYCD6;1 expression = experiment: CYCLIND6;1p::GFP reporter expression in roots after exogenous CLE peptide treatment; type: in vivo, Arabidopsis; settings: Col-0 roots; 0.1 μM CLEp for 48 h from 3 dag, imaged 5 dag
Method: Seeds were surface sterilized with 70% ethanol and 0.1% Triton X-100 for 10 min, rinsed three times with 70% ethanol, and plated onto 0.5× Murashige and Skoog (MS) (pH 5.7) (Research Products International) with 8 g/L Phytoagar (Research Products International) and stratified at 4 °C for 2 d. Following stratification, seeds were germinated in a continuous light growth chamber at 22 °C to 24 °C. For peptide-treated plants, sterilized seeds were stratified and germinated on 0.5× MS plates. At 3 d after germination (dag), seedlings were transferred to either 0.5× MS plates or 0.5× MS plates supplemented with 0.1 μM CLEp for 48 h. Roots were imaged 5 dag as described in the figure legends. All synthetic peptides (>90% purity, Biomatik) (SI Appendix, Table S1) were dissolved in sterile dH2O as recommended. For treatment with dexamethasone (Dex; Sigma), seedlings were stratified and germinated on 0.5× MS plates supplemented with 10 μM Dex for 3 d before imaging.
Laser scanning confocal microscopy of roots was performed using either a C-Apochromat 40×/1.20 W Korr objective on a Zeiss laser scanning microscopy (LSM) 710 or an EC Plan-Neofluar 40×/1.30 oil differential interference contrast (DIC) M27 objective on a Zeiss LSM 880. Roots were examined by staining with 10 μM propidium iodide (PI) (Sigma-Aldrich). For images in Figs. 2B and 4 A and C and SI Appendix, Figs. S1D and S2B, seedlings were fixed in 4% paraformaldehyde in phosphate-buffered saline (PBS) for 45 min, rinsed in PBS, and cleared in ClearSee solution ([38]) overnight. Fixed seedlings were incubated in 0.2% Calcofluor white (Sigma-Aldrich) for 30 min and transferred to fresh ClearSee solution 2 to 24 h before imaging. Laser line excitations and emissions are as follows: Calcofluor white (405 nm; 410 to 551 nm), GFP (488 nm; 492 to 551 nm), YFP (514 nm; 519 to 564 nm), mCherry (561 nm; 566 to 606 nm), and PI (561 nm; 566 to 682 nm). Histological sectioning of Col-0 and bam1/2/3 roots 6 dag were prepared as previously described ([39]).

[2] = target: T2, BAM1 extracellular domain (BARELY ANY MERISTEM1 receptor kinase, residues 20 to 637) (Arabidopsis, UniProt O49545 20-637, biotin (by biotin ligase BirA)); experiment: grating-coupled interferometry (GCI); biotinylated BAM1 captured on streptavidin on a 4PCP WAVE chip (Creoptix WAVE); peptides as analyte, 1:2 dilution series from 10 µM; 25 °C; 20 mM citrate pH 5.0, 250 mM NaCl, 0.01% Tween 20; one-to-one binding model with mass transport; settings: both partners purified
T2 construct: synthetic gene, codon-optimised for Trichoplusia ni; Expressed behind the Drosophila BiP secretion signal peptide in a modified pFastBac vector; the StrepII and 10x His tags were removed with TEV protease, the Avi-tag is not cleavable and was used to capture the protein on streptavidin; also called BAM1 ectodomain; biotinylated BAM1; source: Trichoplusia ni (strain Tnao38) cells, secreted, …
T2 sequence (looked up): T1 sequence (O49545 20-637)

[3] = target: T3, BAM1 extracellular domain (BARELY ANY MERISTEM1 receptor kinase, residues 20 to 637) (Arabidopsis, UniProt O49545 20-637, biotin (by biotin ligase BirA))
T3 chain: T1 sequence (O49545 20-637)

RLVPSGPNPLHH [CLE13p] gave a koff [1] of 0.603 s⁻¹ and a kon [1] of 5.88e+07 M⁻¹ s⁻¹.

In the case of “RLSPGGPDPQHH [CLE2p, synthesized root expressed CLE dodecapeptide, locus At4g18510]”, the “Upregulation of CYCD6 observed? (CYCLIND6;1p::GFP response)” value (“Upregulation of CYCD6 observed?” below) (CYCD6;1 expression) is reported as “No”.

For RTVPSGPDPLHH [CLV3, reference compound], the koff [1] was 0.549 s⁻¹ and the kon [1] was 38200 M⁻¹ s⁻¹.

In the case of “RRVPSGPNPLHH [CLE12p, synthesized root expressed CLE dodecapeptide, locus At1g68795]”, the “Upregulation of CYCD6 observed?” value (CYCD6;1 expression) is reported as “Yes”.

RLVHTGPNPLHN [CLE16p] gave a koff [1] of 1.05 s⁻¹ and a kon [1] of 1.51e+08 M⁻¹ s⁻¹.

`CC(C)C[C@H](NC(=O)[C@@H](N)CCCNC(=N)N)C(=O)N[C@H](C(=O)N1C[C@H](O)C[C@H]1C(=O)N[C@@H](CO)C(=O)NCC(=O)N1C[C@H](O)C[C@H]1C(=O)N[C@@H](CC(N)=O)C(=O)N1CCC[C@H]1C(=O)N[C@@H](CC(C)C)C(=O)N[C@@H](Cc1c[nH]cn1)C(=O)N[C@@H](CC(N)=O)C(=O)O)C(C)C` [CLE9, reference compound] (H-RLV[Hyp]SG[Hyp]NPLHN-OH; N-terminus and C-terminus assumed) was tested, and the koff [1] was 0.024 s⁻¹ and the kon [1] was 3.76e+07 M⁻¹ s⁻¹.

“RLSPGGPDPRHH [CLE1p, synthesized root expressed CLE dodecapeptide, locus At1g73165]” was tested, and the “Upregulation of CYCD6 observed?” value (CYCD6;1 expression) was “No”.

B1: CLE16 dodecapeptide (CLE16p) (peptide, UniProt Q8S8M2 92-103, looked up)
peptide: RLVHTGPNPLHN
modifications: ends and bridges not checked
notes: CLE16p, the active dodecapeptide released from the CLE16 propeptide, Arabidopsis; source: synthetic peptide (>90% purity, Biomatik)
B1 gave a Kd [2] of 6.9 nM.

Molecule RLVPSGPNPLHN [CLE9] has a Kd [3] of 0.6 nM.

With RTVPSGPDPLHH [CLV3] the Kd [3] was 14000 nM.

B2: CLE13 dodecapeptide (CLE13p) (peptide, UniProt Q6NMF0 96-107, looked up)
peptide: RLVPSGPNPLHH
modifications: ends and bridges not checked
notes: CLE13p, the active dodecapeptide released from the CLE13 propeptide, Arabidopsis; source: synthetic peptide (>90% purity, Biomatik)
B2 gave a Kd [2] of 10 nM.
